Experimental findings from ChEMBL document CHEMBL1131171, “Three-dimensional quantitative structure-activity relationship study of the cannabimimetic (aminoalkyl)indoles using comparative molecular field analysis” (J Med Chem, 1998) are described below.

Structures are written as SMILES.

The target of this test is Cannabinoid receptor 1 (Rattus norvegicus, UniProt P20272). Kind of test: Cannabinoid receptor 1 binding affinity by measuring its ability to displace [3H]WIN-55212-2 in rat forebrain membranes. Type of test: cell membranes, Membrane.
Chain of Cannabinoid receptor 1 (P20272 whole entry): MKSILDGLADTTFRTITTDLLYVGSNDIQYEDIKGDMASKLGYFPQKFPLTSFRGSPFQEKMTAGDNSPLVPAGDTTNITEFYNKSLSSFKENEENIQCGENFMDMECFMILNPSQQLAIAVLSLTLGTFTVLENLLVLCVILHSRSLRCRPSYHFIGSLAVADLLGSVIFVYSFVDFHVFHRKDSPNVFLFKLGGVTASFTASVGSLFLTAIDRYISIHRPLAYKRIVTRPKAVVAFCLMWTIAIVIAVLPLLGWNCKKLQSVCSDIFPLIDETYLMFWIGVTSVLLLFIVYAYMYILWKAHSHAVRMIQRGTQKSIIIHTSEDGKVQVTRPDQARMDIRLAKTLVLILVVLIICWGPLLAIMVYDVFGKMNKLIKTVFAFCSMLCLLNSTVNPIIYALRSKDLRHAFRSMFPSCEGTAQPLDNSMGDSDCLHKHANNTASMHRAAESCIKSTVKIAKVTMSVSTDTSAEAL

As usually defined, the Ki is a dissociation constant, usually derived from enzyme kinetics or from competition with a known ligand. Take `COc1ccc(C(=O)c2c(C)n(CCN3CCOCC3)c3cc(OC)ccc23)cc1`: the affinity corresponds to a Ki of 871 µM. `Cc1c(C(=O)c2cccc(Cl)c2)c2ccccc2n1CCN1CCOCC1` showed a Ki of 955 µM. The result for `O=C(c1c2ccccc2cc2ccccc12)c1cn(CCN2CCOCC2)c2ccccc12` reads 427 µM; that for `COc1ccc(C(=O)c2c(C)n(CCN3CCOCC3)c3c(C)cccc23)cc1`, 832 µM. The result for `COc1ccc(C(=O)c2c(C)n(CCN3CCOCC3)c3cc(C)ccc23)cc1` reads 676 µM; that for `Cc1ccc(C(=O)c2c(C)n(CCN3CCOCC3)c3ccccc23)cc1`, 708 µM.
